Experimental data published in patent publication US10287320B2, “Anti-lymphoma peptides” (Universitetet i Tromsø—Norges Arktiske Universitet, priority 2014, dated 2019).
Square brackets hold non-standard residues; d marks the D form. Ends that are not written are not given here. Trp(2,5,7-tBu3) = CC(C)(C)c1cc(C(C)(C)C)c2[nH]c(C(C)(C)C)c(C[C@H](N)C(=O)O)c2c1

Legend:
MRC-5 cells = assay: MTT cytotoxicity assay against MRC-5 normal fibroblasts (selectivity, SI-1); assay type: cell-based, Human
Method: The first screen against A20 and MRC-5 was done manually, while the lymphoma panel screen were done at Marbio (Tromsø) using an automated platform (Biomek NX, Beckman Coulter).
Cells were automatically counted (Z1 Coulter Particle Counter, Beckman Coulter) and the cells seeded out in 96-well plates. The plates were incubated for at least 16 hours before the start of the assay.
(§1) The growth media was removed and the cells washed once with 100 μL assay media (RPMI-1640). Cells were then treated with 100 μL peptide solution (concentration varying from 500-10 μg/mL) for 4 hrs. Normal assay media and assay media containing 0.1% Triton were used as negative and positive controls, respectively. After this period 10 μL of a MTT solution (5 mg/mL) was added to each well and the plate incubated for a further 2 hrs. Following this 70 μL of the media was carefully removed and 100 μL acidified isopropanol added. The formed formazan crystals were dissolved by agitating the cells with a micropipette and by shaking (30 mins). The absorbance of the reduced MTT (formazan) was read on Versa Max Microplate Reader (Molecular Devices) at 590 nm. All assays, unless mentioned otherwise, were done in triplicate.
During the initial screening process peptide analogues was tested against normal human fibroblasts (SI-1) and the results used to estimate cytotoxicity towards healthy cells surrounding the tumor.

A20 cells = assay: MTT cytotoxicity assay against A20 lymphoma cells; assay type: cell-based, Murine; conditions: for ΔIC50 (difference in activity against A20): compared with peptide 4a; for ΔIC50 on further increase of charge: 4a→5 and 6a→7, A20 cells; for IC50: A20 cells
Method: as §1, with “The first screen against A20 and MRC-5 was done manually, while the lymphoma panel screen were done at Marbio (Tromsø) using an automated platform (Biomek NX, Beckman Coulter). Cells were automatically counted (Z1 Coulter Particle Counter, Beckman Coulter) and the cells seeded out in 96-well plates. The plates were incubated for at least 16 hours before the start of the assay. The growth” for “The growth”

[1] = Cardiovascular toxicity assessment in telemeterized rats; assay type: in vivo, Sprague-Dawley rats; conditions: IV twice-daily, telemetry -1 to 8 hours
Method: Male Sprague-Dawley (Charles River, Portage, Mich.) rats (320-400 g) were instrumented with DSI (St. Paul, Minn.) telemetry transmitters by CorDynamics.
EWL-6 was stored in a freezer set to maintain approximately −20° C. and protected from light. A formulation comprising EWL-6 was prepared at a dose volume of 1 mL/kg/dose in 0.9% sodium chloride for injection, U.S.P., for IV dosing. Doses were filtered through a […] PP filter prior to injection.
Each rat was manually restrained and vehicle or EWL-6 dosed twice-daily intravenously over approximately 1-2 minutes. Daily doses were separated by approximately 4 hours.
Pulse pressure (FIG. 8) and mean arterial pressure (FIG. 9) were recorded for −1 to 8 hours following the first daily dose via telemetry and reported in 1 minute averages from −1 to 8 hours following the first daily dose.

three T-lymphoma lines = assay type: cell-based, Human; conditions: 16 h
Method: as §1, with “The first screen against A20 and MRC-5 was done manually, while the lymphoma panel screen were done at Marbio (Tromsø) using an automated platform (Biomek NX, Beckman Coulter). Cells were automatically counted (Z1 Coulter Particle Counter, Beckman Coulter) and the cells seeded out in 96-well plates. The plates were incubated for at least 16 hours before the start of the assay. The growth” for “The growth”

[2] = system: Namalawa (Burkitt's lymphoma); assay type: cell-based, Human; conditions: 16 h
Method: as §1, with “The first screen against A20 and MRC-5 was done manually, while the lymphoma panel screen were done at Marbio (Tromsø) using an automated platform (Biomek NX, Beckman Coulter). Cells were automatically counted (Z1 Coulter Particle Counter, Beckman Coulter) and the cells seeded out in 96-well plates. The plates were incubated for at least 16 hours before the start of the assay. The growth” for “The growth”

[3] = system: Ramos (Burkitt's lymphoma); assay type: cell-based, Human; conditions: 16 h
Method: as §1, with “The first screen against A20 and MRC-5 was done manually, while the lymphoma panel screen were done at Marbio (Tromsø) using an automated platform (Biomek NX, Beckman Coulter). Cells were automatically counted (Z1 Coulter Particle Counter, Beckman Coulter) and the cells seeded out in 96-well plates. The plates were incubated for at least 16 hours before the start of the assay. The growth” for “The growth”

[4] = system: DU-145 Prostate carcinoma; assay type: cell-based; conditions: 4 h
Method: as §1

HT-29 Colon carcinoma = assay type: cell-based; conditions: 4 h
Method: as §1

A20 lymphomas = conditions: mouse, in vivo
Method: A20 tumor cells were harvested, washed in RPMI-1640 and inoculated (i.d.) into the left side of the abdomen in BALB/c mice (5×10^6 cells in 50 μl RPMI-1640 per mouse). When the tumor size reached 20 mm^2 the mice were split into three groups and treated; Group1—nine mice with the vehicle (0.9% NaCl in sterile H2O), Group2a—eight mice where the tumors were treated with peptide 6a, and Group 3a—nine mice where the tumors were treated with peptide 11. Intralesional injections were performed once a day for three consecutive days.
Tumor size was measured three times a week using an electronic caliper and expressed as the area of an ellipse [(maximum dimension/2)×(minimum dimension/2)×[…]. Animals were killed when the tumor exceeded 100 mm^2. Animals were killed also if the tumor had not reached that size but presented ulcerations or the animals developed metastasis.
Survival curves were compared by the log-rank test. Groups were compared using one-way ANOVA test with Tukey's multiple comparison. Differences were considered significant when P<0.05.

[5] = system: SU-DHL-6 (diffuse large B cell lymphoma); assay type: cell-based, Human; conditions: 16 h
Method: as §1, with “The first screen against A20 and MRC-5 was done manually, while the lymphoma panel screen were done at Marbio (Tromsø) using an automated platform (Biomek NX, Beckman Coulter). Cells were automatically counted (Z1 Coulter Particle Counter, Beckman Coulter) and the cells seeded out in 96-well plates. The plates were incubated for at least 16 hours before the start of the assay. The growth” for “The growth”, “media (RPMI-1640). […] Normal assay” for “media (RPMI-1640). Cells were then treated with 100 μL peptide solution (concentration varying from 500-10 μg/mL) for 4 hrs. Normal assay”

[6] = Table 1, selectivity, normal human fibroblasts (MRC-5) versus A20 lymphoma, MTT
[7] = five most active peptides from the A20 screening, tested against normal human fibroblasts
[8] = Table 2, analogues of 6a, MRC-5 fibroblasts versus A20 lymphoma, MTT
[9] = Table 3, MRC-5 fibroblasts versus A20 lymphoma

(Tbt)R(Tbt)-GG-RRRRRRR (SEQ ID NO: 17) ([Trp(2,5,7-tBu3)]R[Trp(2,5,7-tBu3)]GGRRRRRRR-NH2; N-terminus assumed; SMILES CC(C)(C)c1cc(C(C)(C)C)c2[nH]c(C(C)(C)C)c(C[C@H](NC(=O)[C@H](CCCNC(=N)N)NC(=O)[C@@H](N)Cc3c(C(C)(C)C)[nH]c4c(C(C)(C)C)cc(C(C)(C)C)cc34)C(=O)NCC(=O)NCC(=O)N[C@@H](CCCNC(=N)N)C(=O)N[C@@H](CCCNC(=N)N)C(=O)N[C@@H](CCCNC(=N)N)C(=O)N[C@@H](CCCNC(=N)N)C(=O)N[C@@H](CCCNC(=N)N)C(=O)N[C@@H](CCCNC(=N)N)C(=O)N[C@@H](CCCNC(=N)N)C(N)=O)c2c1) [Peptide 4c]
SI-1 (MRC-5 cells; [6]): 1
SI-1 / selectivity (MRC-5 cells; [7]): almost no selectivity at all
ΔIC50 (difference in activity against A20) (A20 cells): small and unexpected decrease in activity

KLAKLAKKLAKLAK-GG-RRRRRRR (SEQ ID NO: 9) [Peptide 1b]
SI-1 (MRC-5 cells; [6]): 5
SI-1 / selectivity (MRC-5 cells; [7]): low selectivity

RWRW-GG-RRRRRRR (SEQ ID NO: 13) (RWRWGGRRRRRRR-NH2) [Peptide 5]
ΔIC50 on further increase of charge (A20 cells): ≈ 1 μM

RWRWRWGGRRRRRRR-NH2 [Peptide 7, RWRWRW-GG-RRRRRRR (SEQ ID NO: 15)]
SI-1 / selectivity (MRC-5 cells; 16 h): higher than 10
SI-1 (MRC-5 cells; [6]): 12
ΔIC50 on further increase of charge (A20 cells): ≈ 1 μM

W-GG-RRRRRRR (SEQ ID NO: 10) (WGGRRRRRRR-NH2) [Peptide 2]
ΔIC50 (difference in activity against A20) (A20 cells): 58 µM

WGRRRRRGWGRRRRGW-NH2 [EWL-6, WGRRRRRGWGRRRRGW (SEQ ID NO: 8)]
mean arterial pressure compared to control [1]: No noticeable difference
pulse pressure compared to control [1]: No noticeable difference

WR(Tbt)-GG-RRRRRRR (SEQ ID NO: 16) (WR[Trp(2,5,7-tBu3)]GGRRRRRRR-NH2; N-terminus assumed; SMILES CC(C)(C)c1cc(C(C)(C)C)c2[nH]c(C(C)(C)C)c(C[C@H](NC(=O)[C@H](CCCNC(=N)N)NC(=O)[C@@H](N)Cc3c[nH]c4ccccc34)C(=O)NCC(=O)NCC(=O)N[C@@H](CCCNC(=N)N)C(=O)N[C@@H](CCCNC(=N)N)C(=O)N[C@@H](CCCNC(=N)N)C(=O)N[C@@H](CCCNC(=N)N)C(=O)N[C@@H](CCCNC(=N)N)C(=O)N[C@@H](CCCNC(=N)N)C(=O)N[C@@H](CCCNC(=N)N)C(N)=O)c2c1) [Peptide 4b]
SI-1 (MRC-5 cells; [6]): 2
SI-1 / selectivity (MRC-5 cells; [7]): almost no selectivity at all

WRRRGRRWRGRRRW [Peptide 6c, WRRRGRRWRGRRRW (SEQ ID NO: 22)]
SI-1 (MRC-5 cells; [8]): >100
SI-1 (MRC-5 cells; [9]): >100
IC50 (A20 cells; Table 3, MTT, 4 hrs treatment): 6.1 µM

WRRRRRWRRRRW-NH2 [Peptide 11, WRRRRRWRRRRW (SEQ ID NO: 23)]
IC50 (three T-lymphoma lines): ~4.6 µM
IC50 [2]: < 10 µM
IC50 [3]: < 10 µM
IC50 [4]: 69 µM
IC50 (HT-29 Colon carcinoma): 70 µM
systemic toxic effects (A20 lymphomas): no signs of systemic toxic effects
IC50 [5]: < 10 µM

WRWRW-GG-RRRR (SEQ ID NO: 20) (WRWRWGGRRRR-NH2) [Peptide 10]
SI-1 (MRC-5 cells; [8]): >23

WRWRW-GG-RRRRR (SEQ ID NO: 19) (WRWRWGGRRRRR-NH2) [Peptide 9]
SI-1 (MRC-5 cells; [8]): 23

WRWRW-GG-RRRRRR (SEQ ID NO: 18) [Peptide 8]
SI-1 (MRC-5 cells; [8]): 21

WRWRWGGKKKKKKK [WRWRW-GG-KKKKKKK, WRWRW-GG-KKKKKKK (SEQ ID NO:26)]
IC50 (A20 cells; as described in Example 1): 13.2 µM

WRWRWGGRRRRRRR-NH2 [Peptide 6a, WRWRW-GG-RRRRRRR (SEQ ID NO: 14)]
IC50 (three T-lymphoma lines): ~4.6 µM
IC50 [2]: < 10 µM
IC50 [3]: < 10 µM
systemic toxic effects (A20 lymphomas): no signs of systemic toxic effects
IC50 [5]: < 10 µM

WWWGGRRRRRRRRR [Peptide 6b, WWWGGRRRRRRRRR (SEQ ID NO: 21)]
SI-1 (MRC-5 cells; [8]): 9
SI-1 (MRC-5 cells; [9]): 9
IC50 (A20 cells; Table 3, MTT, 4 hrs treatment): 3.5 µM
